Results reported in patent publication US20090042964A1, “AMINO-5-[SUBSTITUTED-4-(DIFLUOROMETHOXY)PHENYL]-5-PHENYLIMIDAZOLONE COMPOUNDS AS BETA-SECRETASE INHIBITORS” (Wyeth, priority 2007, published 2009).
Where two headings read alike, the source gives them in different places.

Molecular target: human BACE1 (Homo sapiens, UniProt P56817)
Test: Fluorescent kinetic assay, evaluation of BACE1 binding affinity of test compounds
Assay type: biochemical
Settings: 10 nM human BACE1, 25 μM substrate WABC-6, pH 4.5, room temperature
Description: Concentration is determined by absorbance at 354 nm using an extinction coefficient of 18172 M^-1 cm^-1, the concentration of stock substrate is corrected, and the substrate stock stored in small aliquots in -80° C. […] Determination of Stock Enzyme Concentration: the stock concentration of each enzyme is determined by absorbance at 280 nm using an of 64150 M^-1 cm^-1 for hBACE1 and MuBACE1, 62870 M^-1 cm^-1 for hBACE2 in 6 M Guanidinium Hydrochloride (from Research Organics, Cat. # 5134G-2), pH 6. […] Biochem. 182, 319-326). Dilution and mixing steps: total reaction volume: 100 μL 2× inhibitor dilutions in buffer A (66.7 mM Na-Acetate, pH 4.5, 0.0667% CHAPS) were prepared, 4× enzyme dilution in buffer A (66.7 mM Na-Acetate, pH 4.5, 0.0667% CHAPS) were prepared, 100 μM substrate dilution in 1×PBS was prepared, and 50 μL 2× Inhibitor, 25 μL 100 μM substrate are added to each well of 96-well plate (from DYNEX Technologies, VWR #: 11311-046), immediately followed by 25 μL 4× enzyme (added to the inhibitor and substrate mix), and the fluorescence readings are initiated.

human BACE1, sequence (P56817 46-501): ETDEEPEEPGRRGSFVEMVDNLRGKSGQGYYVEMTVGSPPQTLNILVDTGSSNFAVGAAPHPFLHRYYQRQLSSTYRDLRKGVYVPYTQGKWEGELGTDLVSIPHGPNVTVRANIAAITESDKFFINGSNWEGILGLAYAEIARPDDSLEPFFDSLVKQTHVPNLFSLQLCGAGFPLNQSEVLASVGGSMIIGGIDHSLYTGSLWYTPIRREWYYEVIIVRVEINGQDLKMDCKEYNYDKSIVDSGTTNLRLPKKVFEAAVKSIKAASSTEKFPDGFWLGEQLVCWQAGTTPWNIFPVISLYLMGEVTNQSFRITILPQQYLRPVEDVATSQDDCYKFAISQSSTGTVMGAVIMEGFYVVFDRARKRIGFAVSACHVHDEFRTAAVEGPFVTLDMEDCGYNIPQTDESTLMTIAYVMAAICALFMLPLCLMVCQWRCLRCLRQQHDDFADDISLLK

CN1C(=O)C(c2ccccc2)(c2ccc(OC(F)F)c(C(F)(F)F)c2)N=C1N (stereo not drawn) [Example 12, 2-Amino-5-[4-(difluoromethoxy)-3-(trifluoromethyl)phenyl]-3-methyl-5-phenyl-3,5-dihydro-4H-imidazol-4-one]
IC50 (BACE1 IC50 μM): 0.11 to 1 µM

CN1C(=O)C(c2ccccc2)(c2ccc(OC(F)F)c(CF)c2)N=C1N (stereo not drawn) [Example 13, 2-Amino-5-[4-(difluoromethoxy)-3-(fluoromethyl)phenyl]-3-methyl-5-phenyl-3,5-dihydro-4H-imidazol-4-one]
IC50 (BACE1 IC50 μM): 0.11 to 1 µM

COc1cc(C2(c3ccccc3)N=C(N)N(C)C2=O)ccc1OC(F)F (stereo not drawn) [Example 15, 2-Amino-5-[4-(difluoromethoxy)-3-methoxyphenyl]-3-methyl-5-phenyl-3,5-dihydro-4H-imidazol-4-one]
IC50 (BACE1 IC50 μM): 0.11 to 1 µM

CN1C(=O)C(c2ccccc2)(c2ccc(OC(F)F)c(F)c2)N=C1N (stereo not drawn) [Example 17, 2-Amino-5-[4-(difluoromethoxy)-3-fluorophenyl]-3-methyl-5-phenyl-3,5-dihydro-4H-imidazol-4-one]
IC50 (BACE1 IC50 μM): 0.11 to 1 µM

Cc1cc(C2(c3ccc(OC(F)F)c(C)c3)N=C(N)N(C)C2=O)ccc1F (stereo not drawn) [Example 20, 2-Amino-5-[4-(difluoromethoxy)-3-methylphenyl]-5-(4-fluoro-3-methylphenyl)-3-methyl-3,5-dihydro-4H-imidazol-4-one]
IC50 (BACE1 IC50 μM): 0.11 to 1 µM

COc1ccc(C2(c3ccc(OC(F)F)c(C)c3)N=C(N)N(C)C2=O)cc1C#N (stereo not drawn) [Example 21, 5-{2-Amino-4-[4-(difluoromethoxy)-3-methylphenyl]-1-methyl-5-oxo-4,5-dihydro-1H-imidazol-4-yl}-2-methoxybenzonitrile]
IC50 (BACE1 IC50 μM): 0.11 to 1 µM

Cc1cc(C2(c3ccc(F)c(CF)c3)N=C(N)N(C)C2=O)ccc1OC(F)F (stereo not drawn) [Example 22, 2-Amino-5-[4-(difluoromethoxy)-3-methylphenyl]-5-[4-fluoro-3-(fluoromethyl)phenyl]-3-methyl-3,5-dihydro-4H-imidazol-4-one]
IC50 (BACE1 IC50 μM): 0.11 to 1 µM

CCc1cc([C@]2(c3ccccc3)N=C(N)N(C)C2=O)ccc1OC(F)F [Example 23, (5S)-2-Amino-4-[4-(difluoromethoxy)-3-ethylphenyl]-1-methyl-4-phenyl-1H-imidazol-5(4H)-one]
IC50 (BACE1 IC50 μM): < 0.1 µM

CCc1cc([C@@]2(c3ccccc3)N=C(N)N(C)C2=O)ccc1OC(F)F [Example 24, (5R)-2-Amino-4-[4-(difluoromethoxy)-3-ethylphenyl]-1-methyl-4-phenyl-1H-imidazol-5(4H)-one]
IC50 (BACE1 IC50 μM): > 1 µM

CN1C(=O)[C@](c2ccccc2)(c2ccc(OC(F)F)c(Cl)c2)N=C1N [Example 27, (5S)-2-Amino-5-[3-chloro-4-(difluoromethoxy)phenyl]-1-methyl-5-phenyl-3,5-dihydro-4H-imidazol-4-one]
IC50 (BACE1 IC50 μM): 0.11 to 1 µM

CN1C(=O)[C@@](c2ccccc2)(c2ccc(OC(F)F)c(Cl)c2)N=C1N [Example 28, (5R)-2-Amino-5-[3-chloro-4-(difluoromethoxy)phenyl]-1-methyl-5-phenyl-3,5-dihydro-4H-imidazol-4-one]
IC50 (BACE1 IC50 μM): > 1 µM

Cc1cc(C2(c3ccc(F)c(Br)c3)N=C(N)N(C)C2=O)ccc1OC(F)F (stereo not drawn) [Example 31]
IC50 (BACE1 IC50 μM): 0.11 to 1 µM

Cc1cc(C2(c3ccc(F)c(Br)c3)N=C(N)N(C)C2=O)ccc1OC(F)F (stereo not drawn) [Example 32]
IC50 (BACE1 IC50 μM): < 0.1 µM

C=Cc1cc([C@@]2(c3ccccc3)N=C(N)N(C)C2=O)ccc1OC(F)F [Example 33, (5R)-2-Amino-5-[4-(difluoromethoxy)-3-vinylphenyl]-3-methyl-5-phenyl-3,5-dihydro-4H-imidazol-4-one]
IC50 (BACE1 IC50 μM): < 0.1 µM

C=Cc1cc([C@]2(c3ccccc3)N=C(N)N(C)C2=O)ccc1OC(F)F [Example 34, (5S)-2-Amino-5-[4-(difluoromethoxy)-3-vinylphenyl]-3-methyl-5-phenyl-3,5-dihydro-4H-imidazol-4-one]
IC50 (BACE1 IC50 μM): > 1 µM

CCCCOc1cccc(C2(c3ccc(OC(F)F)c(Cl)c3)N=C(N)N(C)C2=O)c1 (stereo not drawn) [Example 35, 2-Amino-5-(3-butoxyphenyl)-5-[3-chloro-4-(difluoromethoxy)-phenyl]-3-methyl-3,5-dihydro-4H-imidazol-4-one]
IC50 (read-out: BACE1 IC50): < 0.1 µM

CCOc1cccc(C2(c3ccc(OC(F)F)c(Cl)c3)N=C(N)N(C)C2=O)c1 (stereo not drawn) [Example 36, 2-Amino-5-[3-chloro-4-(difluoromethoxy)phenyl]-5-(3-ethoxyphenyl)-3-methyl-3,5-dihydro-4H-imidazol-4-one]
IC50 (read-out: BACE1 IC50): 0.11 to 1 µM

CN1C(=O)C(c2cccc(OCCF)c2)(c2ccc(OC(F)F)c(Cl)c2)N=C1N (stereo not drawn) [Example 37, 2-Amino-5-[3-chloro-4-(difluoromethoxy)phenyl]-5-[3-(2-fluoroethoxy)phenyl]-3-methyl-3,5-dihydro-4H-imidazol-4-one]
IC50 (read-out: BACE1 IC50): < 0.1 µM

CN1C(=O)C(c2cccc(OCC(F)F)c2)(c2ccc(OC(F)F)c(Cl)c2)N=C1N (stereo not drawn) [Example 38, 2-Amino-5-[3-chloro-4-(difluoromethoxy)phenyl]-5-[3-(2,2-difluoroethoxy)phenyl]-3-methyl-3,5-dihydro-4H-imidazol-4-one]
IC50 (read-out: BACE1 IC50): < 0.1 µM

CCCOc1cccc(C2(c3ccc(OC(F)F)c(Cl)c3)N=C(N)N(C)C2=O)c1 (stereo not drawn) [Example 39, 2-Amino-5-[3-chloro-4-(difluoromethoxy)phenyl]-3-methyl-5-(3-propoxyphenyl)-3,5-dihydro-4H-imidazol-4-one]
IC50 (read-out: BACE1 IC50): < 0.1 µM

CN1C(=O)C(c2cccc(OCCCF)c2)(c2ccc(OC(F)F)c(Cl)c2)N=C1N (stereo not drawn) [Example 40, 2-Amino-5-[3-chloro-4-(difluoromethoxy)phenyl]-5-[3-(3-fluoropropoxy)phenyl]-3-methyl-3,5-dihydro-4H-imidazol-4-one]
IC50 (read-out: BACE1 IC50): < 0.1 µM

CCOc1cccc(C2(c3ccc(OC(F)F)c(C)c3)N=C(N)N(C)C2=O)c1 (stereo not drawn) [Example 41, 2-Amino-5-[4-(difluoromethoxy)-3-methylphenyl]-5-(3-ethoxyphenyl)-3-methyl-3,5-dihydro-4H-imidazol-4-one]
IC50 (read-out: BACE1 IC50): < 0.1 µM

Cc1cc(C2(c3cccc(OCCF)c3)N=C(N)N(C)C2=O)ccc1OC(F)F (stereo not drawn) [Example 42]
IC50 (read-out: BACE1 IC50): < 0.1 µM

Cc1cc(C2(c3cccc(OCC(F)F)c3)N=C(N)N(C)C2=O)ccc1OC(F)F (stereo not drawn) [Example 43, 2-Amino-5-[3-(2,2-difluoroethoxy)phenyl]-5-[4-(difluoromethoxy)-3-methylphenyl]-3-methyl-3,5-dihydro-4H-imidazol-4-one]
IC50 (read-out: BACE1 IC50): < 0.1 µM

CCCOc1cccc(C2(c3ccc(OC(F)F)c(C)c3)N=C(N)N(C)C2=O)c1 (stereo not drawn) [Example 44, 2-Amino-5-[4-(difluoromethoxy)-3-methylphenyl]-3-methyl-5-(3-propoxyphenyl)-3,5-dihydro-4H-imidazol-4-one]
IC50 (read-out: BACE1 IC50): < 0.1 µM

Cc1cc(C2(c3cccc(OCCCF)c3)N=C(N)N(C)C2=O)ccc1OC(F)F (stereo not drawn) [Example 45, 2-Amino-5-[4-(difluoromethoxy)-3-methylphenyl]-5-[3-(3-fluoropropoxy)phenyl]-3-methyl-3,5-dihydro-4H-imidazol-4-one]
IC50 (read-out: BACE1 IC50): < 0.1 µM

Cc1cc(C2(c3ccc(F)c(C#CC(C)C)c3)N=C(N)N(C)C2=O)ccc1OC(F)F (stereo not drawn) [Example 48, 2-Amino-5-[4-(difluoromethoxy)-3-methylphenyl]-5-[4-fluoro-3-(3-methylbut-1-yn-1-yl)phenyl]-3-methyl-3,5-dihydro-4H-imidazol-4-one]
IC50 (read-out: BACE1 IC50): < 0.1 µM

COC/C=C/c1cc(C2(c3ccc(OC(F)F)c(C)c3)N=C(N)N(C)C2=O)ccc1F (stereo not drawn) [Example 57, 2-Amino-5-(4-difluoromethoxy-3-methylphenyl)-5-[4-fluoro-3-((E)-3-methoxypropenyl)phenyl]-3-methyl-3,5-dihydro-imidazol-4-one]
IC50 (read-out: BACE1 IC50): < 0.1 µM

Cc1cc(C2(c3ccc(F)c(/C=C/CCF)c3)N=C(N)N(C)C2=O)ccc1OC(F)F (stereo not drawn) [Example 58, 2-Amino-5-[4-(difluoromethoxy)-3-methylphenyl]-5-[4-fluoro-3-((E)-4-fluorobut-1-enyl)phenyl]-3-methyl-3,5-dihydro-4H-imidazol-4-one]
IC50 (read-out: BACE1 IC50): < 0.1 µM

C/C=C/c1cc(C2(c3ccc(OC(F)F)c(C)c3)N=C(N)N(C)C2=O)ccc1F (stereo not drawn) [Example 59, 2-Amino-5-[4-(difluoromethoxy)-3-methylphenyl]-5-[4-fluoro-3-((E)-prop-1-enyl)phenyl]-3-methyl-3,5-dihydro-4H-imidazol-4-one]
IC50 (read-out: BACE1 IC50): < 0.1 µM

COCC/C=C/c1cc(C2(c3ccc(OC(F)F)c(C)c3)N=C(N)N(C)C2=O)ccc1F (stereo not drawn) [Example 60, 2-Amino-5-[4-(difluoromethoxy)-3-methylphenyl]-5-[4-fluoro-3-((E)-4-methoxy-but-1-enyl)phenyl]-3-methyl-3,5-dihydro-4H-imidazol-4-one]
IC50 (read-out: BACE1 IC50): < 0.1 µM

C/C=C/c1cccc(C2(c3ccc(OC(F)F)c(C)c3)N=C(N)N(C)C2=O)c1 (stereo not drawn) [Example 61, 2-Amino-5-[4-(difluoromethoxy)-3-methylphenyl]-3-methyl-5-[((E)-3-prop-1-enyl)phenyl]-3,5-dihydro-4H-imidazol-4-one]
IC50 (read-out: BACE1 IC50): < 0.1 µM

COC/C=C/c1cccc(C2(c3ccc(OC(F)F)c(C)c3)N=C(N)N(C)C2=O)c1 (stereo not drawn) [Example 62, 2-Amino-5-[4-(difluoromethoxy)-3-methylphenyl]-5-[3-((E)-3-methoxyprop-1-enyl)phenyl]-3-methyl-3,5-dihydro-4H-imidazol-4-one]
IC50 (read-out: BACE1 IC50): < 0.1 µM
